This is an account of results in ChEMBL document CHEMBL4330082, “Tailoring a lead-like compound targeting multiple G-quadruplex structures” (Eur J Med Chem, 2019).

Activity calls are given as the source filed them. The calls are words filed in the database; no cut-off is given here.

In series [1] the test system is Quadruplex DNA. In words: Binding affinity to synthetic c-Kit2 G-quadruplex DNA assessed as residual binding at 60 uM after 4 mins by UV-Vis spectrophotometric analysis relative to control. The class given is nucleic-acid assay.
Series [2] relates to Quadruplex DNA. In words: Binding affinity to human TERT1 G-quadruplex DNA assessed as residual binding at 60 uM after 4 mins by UV-Vis spectrophotometric analysis relative to control. The format is nucleic-acid assay.
Series [3] relates to dsDNA. The series is described as follows: Binding affinity to synthetic 27-mer duplex DNA assessed as residual binding at 60 uM after 4 mins by UV-Vis spectrophotometric analysis relative to control. The class given is nucleic-acid assay.
Series [4] deals with Quadruplex DNA. The series is described as follows: Binding affinity to synthetic c-Kit1 G-quadruplex DNA assessed as residual binding at 60 uM after 4 mins by UV-Vis spectrophotometric analysis relative to control. The format is nucleic-acid assay.
Series [5] is filed under the species Homo sapiens. The series is described as follows: Induction of telomeric DNA damage in human BJeH-LT cells expressing human TERT assessed as increase in gamma-histone H2AX levels at 0.5 uM after 24 hrs by immunofluorescence assay. The format is functional, cell-based.
Series [6] relates to HeLa. The series is described as follows: Inhibition of colony formation in human HeLa cells at 2 uM after 10 days by methylene blue staining-based assay. The format is functional, cell-based.
Series [7] deals with Quadruplex DNA. In words: Binding affinity to synthetic telomeric 26 G-quadruplex DNA assessed as residual binding at 60 uM after 4 mins by UV-Vis spectrophotometric analysis relative to control. The format is nucleic-acid assay.
The species entered for series [8] is Homo sapiens. In words: Induction of telomeric DNA damage in human BJeH-LT cells expressing human TERT assessed as increase in TIF positive cells at 0.5 uM after 24 hrs by immunofluorescence assay. The format is functional, cell-based.
Series [9] relates to Quadruplex DNA. The series is described as follows: Binding affinity to synthetic cMYC G-quadruplex DNA assessed as residual binding at 60 uM after 4 mins by UV-Vis spectrophotometric analysis relative to control. The class given is nucleic-acid assay.
Series [10] relates to Quadruplex DNA. The series is described as follows: Binding affinity to synthetic telomeric 26 G-quadruplex DNA assessed as melting temperature compound:DNA ratio of 5:1 after 5 mins by CD spectra analysis (reference value: 49 degreeC). The format is nucleic-acid assay.
The test system of series [11] is Quadruplex DNA. In words: Induction of conformational changes in synthetic telomeric 26 G-quadruplex DNA at 1 to 5 equivalents after 5 mins by CD spectra analysis. The class given is nucleic-acid assay.
Series [12] deals with Quadruplex DNA. The series is described as follows: Binding affinity to synthetic MYC 22 G-quadruplex DNA assessed as melting temperature compound:DNA ratio of 4:1 by 1H NMR spectroscopic analysis. The class given is nucleic-acid assay.
For series [13], the system named is BJ. In words: Cytotoxicity against in human BJ cells expressing human TERT assessed as reduction in cell viability at 1 to 2 uM incubated for 6 days by trypan blue exclusion assay. The class given is cell-based. To be noted: 144 h.
The test system of series [14] is dsDNA. The series is described as follows: Binding affinity to synthetic 12-mer duplex DNA assessed as melting temperature compound:DNA ratio of 4:1 by 1H NMR spectroscopic analysis. The class given is nucleic-acid assay.
The subject of series [15] is Quadruplex DNA. The series is described as follows: Induction of conformational changes in synthetic cMYC G-quadruplex DNA at 1 to 5 equivalents after 5 mins by CD spectra analysis. The class given is nucleic-acid assay.
Series [16] has as its system dsDNA. The series is described as follows: Induction of conformational changes in synthetic 27-mer duplex DNA at 1 to 5 equivalents after 5 mins by CD spectra analysis. The format is nucleic-acid assay.
In series [17] the test system is Quadruplex DNA. In words: Binding affinity to synthetic modified telomeric 24 G-quadruplex DNA assessed as melting temperature compound:DNA ratio of 4:1 by 1H NMR spectroscopic analysis. The class given is nucleic-acid assay.
The target in series [18] is Quadruplex DNA. The series is described as follows: Binding affinity to Cy5-fluorescently labeled synthetic MYC 22 G-quadruplex DNA by microscale thermophoresis assay. The class given is nucleic-acid assay. Background: In MST a laser heats a spot of the sample, and binding alters the fluorescence response.
Series [19] has as its system dsDNA. In words: Binding affinity to synthetic 27-mer duplex DNA assessed as melting temperature compound:DNA ratio of 5:1 after 5 mins by CD spectra analysis (reference value: 75 degreeC). The class given is nucleic-acid assay.
The target of series [20] is Quadruplex DNA. In words: Binding affinity to Cy5-fluorescently labeled synthetic Telomeric 26 G-quadruplex DNA by microscale thermophoresis assay. The format is nucleic-acid assay.
Series [21] concerns Quadruplex DNA. The series is described as follows: Binding affinity to synthetic cMYC G-quadruplex DNA assessed as melting temperature compound:DNA ratio of 5:1 after 5 mins by CD spectra analysis (reference value: 82 degreeC). The class given is nucleic-acid assay.
Series [22] deals with HeLa. In words: Inhibition of colony formation in human HeLa cells at 0.5 to 2 uM after 10 days by methylene blue staining-based assay. The class given is functional.

On to `O=C1c2ccccc2C(=O)c2c1oc1c3c(ccc21)OCN(CCCn1ccnc1)C3`, for which the Activity in [1] worked out at 91%; in series [2], 82%; in series [3], 46%; in series [4] it was 85%; in [7], 80%; in series [9], 94%. Also, the outcome in [5] and in series [8] was Active. For the same compound, the inhibition entry in [6] was “Active”.

For `O=C1c2ccccc2C(=O)c2c1oc1c3c(ccc21)OCN(CCCN1CCOCC1)C3`, the Activity in series [1] came to 84%; in [2], 92%; in series [3] it was 33%; in series [4], 77%; in [7], 80%; in [9] it was 89%. Besides, the outcome in series [5] and in [8] was Active. For the same compound, the inhibition entry in series [6] was “Active”.

Regarding `CC(c1ccccc1)N1COc2ccc3c4c(oc3c2C1)C(=O)c1ccccc1C4=O` (stereo not given), the Activity in [1] was 80%; in [2] it was 82%; in series [3] it was 0%; in series [13], “Non-Toxic”; in series [4] it was 78%; in series [7] it was 80%. In addition, the Activity in series [9] is 84%. In addition, the results for the Tm in [10], in [19] and in series [21] were 50 °C, 76 °C and above 90 °C, respectively. In addition, the outcome in series [11], in series [12], in series [15], in series [5], in [8] and in series [17] was Active. For the same compound, the outcome in [14] and in series [16] was inactive. Besides, the Kd (in general, the concentration at which binding is half-saturated) worked out at 13 µM in [18] and 26 µM in series [20].

As for `O=C1c2ccccc2C(=O)c2c1oc1c3c(ccc21)OCN(Cc1ccco1)C3`, the Activity in series [1] came to 92%; in series [2], 91%; in series [3], 2%; in series [4], 90%; in series [7] it was 86%; in [9], 93%. The result in series [5] and in series [8] was Active. Further, the inhibition result in series [6] was “Active”.

On to `O=C1c2ccccc2C(=O)c2c1oc1c3c(ccc21)OCN(CCC1=CCCCC1)C3`, for which the Activity in series [1] came out at 67%; in series [2], 73%; in series [3], 16%; in series [4], 55%; in series [7], 73%; in [9], 84%. Further, the outcome in [5] and in series [8] was Active. For the same compound, the inhibition entry in series [6] is “Active”.

In series [22], `O=C1c2ccccc2C(=O)c2c1oc1c3c(ccc21)OCN(C1CCCCC1)C3` had an MED of 2 µM. Also, the Activity in series [1] is 82%; in series [2] it was 74%; in series [3], 18%; in series [13] it was “Toxic”; in series [4] it was 70%; in series [7] it was 86%. For the same compound, the Activity in [9] is 86%. Moreover, the Tm in [10] is 49 °C; in series [19], 76 °C; in [21], above 90 °C. In addition, the outcome in series [11], in series [12], in series [15], in series [5], in [8] and in series [17] was Active. Also, the outcome in [14] and in series [16] was inactive.

Regarding `O=C1c2ccccc2C(=O)c2c1oc1c3c(ccc21)OCN(CC1CCCO1)C3` (stereo not given), the Activity was found to be 83% in series [1]; 87% in series [2]; 20% in series [3]; 88% in [4]; 78% in series [7]; 90% in series [9]. Besides, the result in [5] and in series [8] was Active. Also, in series [6], the inhibition result was “Active”.

For the compound `CC(=O)c1c(C)oc2c1c1c(c3ccccc32)OCN(CCCN2CCOCC2)C1`, the Activity is 70% in [1]; 78% in series [2]; 22% in series [3]; 75% in series [4]; 76% in series [7]; 74% in series [9]. The outcome in series [5] and in series [8] was inactive. Besides, in series [6], the inhibition result was “Active”.

As to `O=C1c2ccccc2C(=O)c2c1oc1c3c(ccc21)OCN(Cc1ccccc1)C3`, the Activity in [1] is 83%; in [2] it was 78%; in series [3], 12%; in series [4] it was 76%; in [7], 80%; in series [9] it was 87%. The result in series [5] and in [8] was Active. Also, in [6], the inhibition entry is “Active”.

Consider `O=C1c2ccccc2C(=O)c2c1oc1c3c(ccc21)OCN(CC1CCS(=O)(=O)C1)C3` (stereo not given), for which the Activity in series [1] turned out to be 68%; in series [2], 76%; in [3], 16%; in [4], 72%; in series [7] it was 75%; in [9], 73%. The outcome in series [5] and in series [8] was inactive. Besides, the inhibition entry in series [6] was “Active”.

Consider `O=C1c2ccccc2C(=O)c2c1oc1c3c(ccc21)OCN(Cc1cccnc1)C3`, for which the Activity in series [1] was 88%; in series [2], 89%; in series [3], 28%; in series [4], 90%; in series [7] it was 79%; in [9], 94%. Besides, the result in series [5] and in series [8] was inactive. Also, the inhibition entry in [6] was “Active”.
